US9540377B2, “2,6,7,8 substituted purines as HDM2 inhibitors” (Merck Sharp & Dohme Corp., priority 2013, dated 2017)

These compounds were tested against HDM2 (truncated, residues 17 to 125, containing p53 binding surface) (Homo sapiens (Human), UniProt Q00987) (assay: HDM2 FRET assay (inhibition of binding of FITC labeled p53-site peptide to HDM2)). Settings: Table 16.
Text: IC50 DETERMINATIONS: Dose-response curves were plotted from the inhibition data, from 10 point serial dilutions of inhibitory compounds. Concentration of compound was plotted against em520/Cem495 ratio signal. To generate IC50 values, the dose-response curves were fitted to a standard sigmoidal curve and IC50 values were derived by nonlinear regression analysis.

Sequence of HDM2 (truncated, residues 17 to 125, containing p53 binding surface) (Q00987 17-125): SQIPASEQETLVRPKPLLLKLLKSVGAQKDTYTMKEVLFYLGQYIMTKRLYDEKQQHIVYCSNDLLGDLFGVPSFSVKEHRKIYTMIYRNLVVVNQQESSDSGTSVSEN

`C[C@H]1CC[C@H](Cn2c(N3CCOC4CCCCC43)nc3nc(-c4noc(=O)[nH]4)nc(-c4cccc(Cl)c4)c32)CC1` (single isomer, unassigned) [Example 16.78, 3-(6-(3-chlorophenyl)-7-[(trans-4-methylcyclohexyl)methyl]-8-(octahydro-4H-1,4-benzoxazin-4-yl)-7H-purin-2-yl]-1,2,4-oxadiazol-5(4H)-one] and `C[C@H]1CC[C@H](Cn2c(N3CCOC4CCCCC43)nc3nc(-c4noc(=O)[nH]4)nc(-c4cncc(Cl)c4)c32)CC1` (single isomer, unassigned) [Example 16.52, 3-[6-(5-chloropyridin-3-yl)-7-[(trans-4-methylcyclohexyl)methyl]-8-(octahydro-4H-1,4-benzoxazin-4-yl)-7H-purin-2-yl]-1,2,4-oxadiazol-5(4H)-one] are within 1.5-fold of each other in IC50: 1.4 nM for the first, 1 nM for the second.

Going from `COC(C)(C)C1CCCN1c1nc2nc(-c3noc(=O)[nH]3)nc(-c3cncc(Cl)c3)c2n1C[C@H]1CC[C@H](C)CC1` (single isomer, unassigned) [Example 16.73, 3-{6-(5-chloropyridin-3-yl)-8-[2-(1-methoxy-1-methylethyl)pyrrolidin-1-yl]-7-[(trans-4-methylcyclohexyl)methyl]-7H-purin-2-yl}-1,2,4-oxadiazol-5(4H)-one] to `Cc1nnc(C2CCCN2c2nc3nc(-c4noc(=O)[nH]4)nc(-c4cncc(Cl)c4)c3n2C[C@H]2CC[C@H](C)CC2)o1` (mixture of isomers) [Example 16.141, 3-{6-(5-chloropyridin-3-yl)-7-[(trans-4-methylcyclohexyl)methyl]-8-[2-(5-methyl-1,3,4-oxadiazol-2-yl)pyrrolidin-1-yl]-7H-purin-2-yl}-1,2,4-oxadiazol-5(4H)-one], the IC50 rises from 1.97 nM to 26.8 nM (14-fold). The first is the more potent here.

Compared with `COC(C)(C)C1CCCN1c1nc2nc(-c3n[nH]c(=O)o3)nc(-c3cccc(Cl)c3)c2n1C[C@H]1CC[C@H](C)CC1` (single isomer, unassigned) [Example 16.71, 5-{6-(3-chlorophenyl)-8-[2-(1-methoxy-1-methylethyl)pyrrolidin-1-yl]-7-[(trans-4-methylcyclohexyl)methyl]-7H-purin-2-yl}-1,3,4-oxadiazol-2(3H)-one], `C[C@H]1CC[C@H](Cn2c(N3CCCC4COCCC43)nc3nc(-c4n[nH]c(=O)o4)nc(-c4cccc(Cl)c4)c32)CC1` (single isomer, unassigned) [Example 16.125, 5-{6-(3-chlorophenyl)-8-(hexahydro-2H-pyrano[4,3-b]pyridin-1(5H)-yl)-7-[(trans-4-methylcyclohexyl)methyl]-7H-purin-2-yl}-1,3,4-oxadiazol-2(3H)-one] is 23-fold higher in IC50: 2.47 nM for the first, 56.7 nM for the second. The first is the more potent here.

Going from `Cc1ncc(Cl)cc1-c1nc(-c2noc(=O)[nH]2)nc2nc(N3CCO[C@@H]4CCC[C@H]43)n(C[C@H]3CC[C@H](C)CC3)c12` (racemic) [Example 16.164, 3-{6-(5-chloro-2-methylpyridin-3-yl)-8-[(trans)-hexahydrocyclopenta [b][1,4]oxazin-4(4aH)-yl]-7-[(trans-4-methylcyclohexyl)methyl]-7H-purin-2-yl}-1,2,4-oxadiazol-5(4H)-one] to `C[C@H]1CC[C@H](Cn2c(N3CCCC4COCCC43)nc3nc(-c4noc(=O)[nH]4)nc(-c4cccc(Cl)c4)c32)CC1` (single isomer, unassigned) [Example 16.119, 3-{6-[3-chlorophenyl)-8-(hexahydro-2H-pyrano[4,3-b]pyridin-1(5H)-yl)-7-[(trans-4-methylcyclohexyl)methyl]-7H-purin-2-yl}-1,2,4-oxadiazol-5(4H)-one], the IC50 rises from 2.09 nM to 60.9 nM (29-fold).

Going from `CO[C@H]1CCN(c2nc3nc(-c4n[nH]c(=O)o4)nc(-c4cncc(Cl)c4)c3n2C[C@H]2CC[C@H](C)CC2)[C@@H](C)C1` (racemic) [Example 16.154, 5-{6-(5-chloropyridin-3-yl)-8-[(cis)-4-methoxy-2-methylpiperidin-1-yl]-7-[(trans-4-methylcyclohexyl)methyl]-7H-purin-2-yl}-1,3,4-oxadiazol-2(3H)-one] to `C[C@H]1CC[C@H](Cn2c(N3CCCC4COCCC43)nc3nc(-c4n[nH]c(=O)o4)nc(-c4cccc(Cl)c4)c32)CC1` (single isomer, unassigned) [Example 16.124, 5-{6-(3-chlorophenyl)-8-(hexahydro-2H-pyrano[4,3-b]pyridin-1(5H)-yl)-7-[(trans-4-methylcyclohexyl)methyl]-7H-purin-2-yl}-1,3,4-oxadiazol-2(3H)-one], the IC50 rises from 67.2 nM to 263 nM (3.9-fold). The first is the more potent here.

Same assay, conditions: Table 23

`CC(F)(c1ccccc1F)c1nc2nc(-c3noc(=O)[nH]3)nc(-c3cncc(Cl)c3)c2n1C[C@H]1CC[C@H](C)CC1` (single isomer, unassigned) [Example 23.35, 3-{6-(5-chloropyridin-3-yl)-8-[1-fluoro-1-(2-fluorophenyl)ethyl]-7-[(trans-4-methylcyclohexyl)methyl] 7H-purin-2-yl}-1,2,4-oxadiazol-5(4H)-one] and `CC(F)(c1ccccc1C#N)c1nc2nc(-c3noc(=O)[nH]3)nc(-c3cncc(Cl)c3)c2n1C[C@H]1CC[C@H](C)CC1` (mixture of isomers) [Example 23.110, 2-{1-[6-(5-chloropyridin-3-yl)-7-[(trans-4-methylcyclohexyl)methyl]-2-(5-oxo-4,5-dihydro-1,2,4-oxadiazol-3-yl)-7H-purin-8-yl]-1-fluoroethyl}benzonitrile] are within 1.5-fold of each other in IC50: 0.424 nM for the first, 0.515 nM for the second.

Compared with `COC(C)(c1ncccc1F)c1nc2nc(-c3n[nH]c(=O)o3)nc(-c3cncc(Cl)c3)c2n1C[C@H]1CC[C@H](C)CC1` (single isomer, unassigned) [Example 23.87, 5-{6-(5-chloropyridin-3-yl)-8-[1-(3-fluoropyridin-2-yl)-1-methoxyethyl]-7-[(trans-4-methylcyclohexyl)methyl]-7H-purin-2-yl}-1,3,4-oxadiazol-2(3H)-one], `COC(C)(c1c(F)cccc1F)c1nc2nc(-c3n[nH]c(=O)o3)nc(-c3cncc(Cl)c3)c2n1C[C@H]1CC[C@H](C)CC1` (single isomer, unassigned) [Example 23.88, 5-{6-(5-chloropyridin-3-yl)-8-[1-(2,6-difluorophenyl)-1-methoxyethyl]-7-[(trans-4-methylcyclohexyl)methyl]-7H-purin-2-yl}-1,3,4-oxadiazol-2(3H)-one] is 33-fold lower in IC50: 19.6 nM for the first, 0.598 nM for the second.

Going from `CC(O)(c1nc2nc(-c3n[nH]c(=O)o3)nc(-c3cccc(Cl)c3)c2n1C[C@H]1CC[C@H](C)CC1)C1CCCCC1` (mixture of isomers) [Example 23.11, 5-{6-(3-chlorophenyl)-8-(1-cyclohexyl-1-hydroxyethyl)-7-[(trans-4-methylcyclohexyl)methyl]-7H-purin-2-yl}-1,3,4-oxadiazol-2(3H)-one] to `CC(F)(c1nc2nc(-c3n[nH]c(=O)o3)nc(-c3cncc(Cl)c3)c2n1C[C@H]1CC[C@H](C)CC1)C1CCCC1` (mixture of isomers) [Example 23.58, 5-{6-(5-chloropyridin-3-yl)-8-(1-cyclopentyl-1-fluoroethyl)-7-[(trans-4-methylcyclohexyl)methyl]-7H-purin-2-yl}-1,3,4-oxadiazol-2(3H)-one], the IC50 falls from 214 nM to 1.95 nM (110-fold). The second is the more potent here.

Going from `CC(c1ccccc1F)c1nc2nc(-c3n[nH]c(=O)o3)nc(-c3cncc(Cl)c3)c2n1C[C@H]1CC[C@H](C)CC1` (mixture of isomers) [Example 23.114, 5-{6-(5-chloropyridin-3-yl)-8-[1-(2-fluorophenyl)ethyl]-7-[(trans-4-methylcyclohexyl)methyl]-7H-purin-2-yl}-1,3,4-oxadiazol-2(3H)-one] to `CC(F)(c1c(F)cccc1F)c1nc2nc(-c3n[nH]c(=O)o3)nc(-c3cncc(Cl)c3)c2n1C[C@H]1CC[C@H](C)CC1` (single isomer, unassigned) [Example 23.80, 5-{6-(5-chloropyridin-3-yl)-8-[1-(2,6-difluorophenyl)-1-fluoroethyl]-7-[(trans-4-methylcyclohexyl)methyl]-7H-purin-2-yl}-1,3,4-oxadiazol-2(3H)-one], the IC50 rises from 2.13 nM to 10.7 nM (5-fold). The first is the more potent here.

Compared with `COC(C)(c1ncccc1F)c1nc2nc(-c3n[nH]c(=O)o3)nc(-c3cncc(Cl)c3)c2n1C[C@H]1CC[C@H](C)CC1` (single isomer, unassigned) [Example 23.86, 5-{6-(5-chloropyridin-3-yl)-8-[1-(3-fluoropyridin-2-yl)-1-methoxyethyl]-7-[(trans-4-methylcyclohexyl)methyl]-7H-purin-2-yl}-1,3,4-oxadiazol-2(3H)-one], `COC1(c2nc3nc(-c4n[nH]c(=O)o4)nc(-c4cncc(Cl)c4)c3n2C[C@H]2CC[C@H](C)CC2)CCOc2cccnc21` (mixture of isomers) [Example 23.90, 5-{6-(5-chloropyridin-3-yl)-8-(4-methoxy-3,4-dihydro-2H-pyrano[3,2-b]pyridin-4-yl)-7-[(trans-4-methylcyclohexyl)methyl]-7H-purin-2-yl}-1,3,4-oxadiazol-2(3H)-one] is 11-fold higher in IC50: 0.675 nM for the first, 7.41 nM for the second.

Going from `COC(c1nc2nc(-c3noc(=O)[nH]3)nc(-c3cncc(Cl)c3)c2n1C[C@H]1CC[C@H](C)CC1)C1CCOCC1` (mixture of isomers) [Example 23.18, 3-{6-(5-chloropyridin-3-yl)-8-[methoxy(tetrahydro-2H-pyran-4-yl)methyl]-7-[(trans-4-methylcyclohexyl)methyl]-7H-purin-2-yl}-1,2,4-oxadiazol-5(4H)-one] to `COC(c1nc2nc(-c3n[nH]c(=O)o3)nc(-c3cncc(Cl)c3)c2n1C[C@H]1CC[C@H](C)CC1)C1CCCCC1` (mixture of isomers) [Example 23.22, 5-{6-(5-chloropyridin-3-yl)-8-[cyclohexyl(methoxy)methyl]-7-[(trans-4-methylcyclohexyl)methyl]-7H-purin-2-yl}-1,3,4-oxadiazol-2(3H)-one], the IC50 falls from 24.1 nM to 12 nM (2-fold). The second is the more potent here.

Compound `CC1COCCC1(F)c1nc2nc(-c3noc(=O)[nH]3)nc(-c3cncc(Cl)c3)c2n1C[C@H]1CC[C@H](C)CC1` (single isomer, unassigned) [Example 23.95, 3-{6-(5-chloropyridin-3-yl)-8-(4-fluoro-3-methyltetrahydro-2H-pyran-4-yl)-7-[(trans-4-methylcyclohexyl)methyl]-7H-purin-2-yl}-1,2,4-oxadiazol-5(4H)-one] has an IC50 of 4.33 nM.
